# According to patent publication US20260226493A1, “HERBICIDE RESISTANT PLANTS” (SYNGENTA CROP PROTECTION AG, priority 2023, published 2026):
# How the values were obtained:
# Test in all cases: BIO3-BIO1 mutant enzyme activity in the presence of herbicide, percentage inhibition (fluorometric DAPA assay)
# Type in all cases: biochemical
# Details in all cases: read-out: percentage inhibition
# [1] = target: T1, Arabidopsis thaliana BIO3-BIO1 (BioDA) mutants (Arabidopsis thaliana, UniProt B0F481, A609W)
# T1 construct: with the predicted N-terminal mitochondrial transit peptide removed; 6xHis-tag (N); thrombin cleavage site (N); made in house; host or cells: E. coli BL21 (DE3) bioA
# Description: (§1) A pet-24 plasmid containing a DNA sequence encoding each identified variant mutant of BIO3-BIO1 derived from Arabidopsis thaliana from example 5 above, as shown in Table 13 below and as shown in full in SEQ ID NOs: 15 to 155, codon-optimised for expression in E. coli, with an N-terminal 6×His-tag and thrombin cleavage site and under control of a T7 promoter, and was synthesised by Twist Bioscience, in a similar manner to SEQ ID NO:311. These plasmids were then expressed in E. coli BL21 (DE3) bioA with 50 μg/mL kanamycin and 25 μg/mL chloramphenicol selection. Overnight cultures grown at 37° C. were used to inoculate 8×500 mL AIM in shake flasks at a ratio of 1:100. Cultures were grown at 37° C., 200 rpm for 3.5 hours and then overnight at 20° C. Cells were harvested by centrifugation for 30 minutes at 10 000 g. Cells were stored at −80° C. until extraction. 30 g of cell pellet from was thawed in 120 mL of IMAC buffer A (20 mM HEPES pH7.5, 25 mM imidazole, 500 mM sodium chloride, 0.15 mM pyridoxal phosphate, 0.5 mM TCEP, 1× complete Protease Inhibitor Tablet (Roche)). The resuspension was passed through a cell disrupter at 18 000 PSI and centrifuged at 50 000 g for 25 minutes at 4° C. The His-tagged BIO3-BIO1 protein was purified from the extract supernatant on an AKTA avant chromatography system (Cytiva) using a HisTrap FF column and eluted in IMAC buffer B ((20 mM HEPES pH7.5, 500 mM imidazole, 500 mM sodium chloride, 0.15 mM pyridoxal phosphate, 0.5 mM TCEP) followed by SEC using a HiLoad 26/60 Superdex200 column in SEC buffer (25 mM HEPES pH7.5, 150 mM sodium chloride, 0.15 mM pyridoxal phosphate, 0.5 mM TCEP). Protein concentration was measured and calculated using the absorbance at 280 nm. Extracts were diluted 1 in 4 and 10 uL was analysed by SDS PAGE.
# (§2) To measure BIO3-BIO1 mutant enzyme activity in the presence of herbicide, herbicides were incubated with 20 μL of enzyme mix (100 mM EPPS pH 8.6, 0.1 mM pyridoxal phosphate, 0.1 mg/mL BSA, 50 nM BIO3-BIO1 enzyme) for 10 minutes at 20° C. in a well of a 96-well half-area black plate, followed by the addition of 20 μL of substrate mix (final concentration of 100 mM EPPS pH 8.6, 0.1 mM pyridoxal phosphate, 0.1 mg/mL BSA, 100 μM spermidine, 20 μM KAPA, 100 mM NaCO3) and further incubation for 75 minutes at 20° C. The reaction was terminated by the addition of 50 μL of derivatisation mix (final concentration of 250 mM borate NaOH pH 9.4, 3.6 mM o-phthalaldehyde, 7 mM β-mercaptoethanol, 17% (v/v) ethanol, 3.6% (v/v) methanol). The fluorescent product produced by the reaction of DAPA with o-phthalaldehyde and 7 mM β-mercaptoethanol was measured at 470 nm after excitation at 410 nm. The percentage inhibition was calculated as the activity in the presence of one of three concentrations of each herbicide compound A to M (note that the compounds labelled as A to M are identified hereinabove in the relevant section of the description) as a percentage of the activity in DMSO (Table 12 and 13). The percentage activity versus WT was also calculated and is shown in Table 13 and 14 (NT indicates mutation not tested in table 13, note that these mutations are tested at different compound concentrations for compounds L, M and C, and the results are shown in table 14).
# [2] = target: T2, Arabidopsis thaliana BIO3-BIO1 (BioDA) mutants (Arabidopsis thaliana, UniProt B0F481, S509V)
# T2 construct: with the predicted N-terminal mitochondrial transit peptide removed; 6xHis-tag (N); thrombin cleavage site (N); made in house; host or cells: E. coli BL21 (DE3) bioA
# Description: as §1, §2
# [3] = target: T3, Arabidopsis thaliana BIO3-BIO1 (BioDA) mutants (Arabidopsis thaliana, UniProt B0F481, P421G)
# T3 construct: with the predicted N-terminal mitochondrial transit peptide removed; 6xHis-tag (N); thrombin cleavage site (N); made in house; host or cells: E. coli BL21 (DE3) bioA
# Description: as §1, §2
# [4] = target: T4, Arabidopsis thaliana BIO3-BIO1 (BioDA) mutants (Arabidopsis thaliana, UniProt B0F481, A609H)
# T4 construct: with the predicted N-terminal mitochondrial transit peptide removed; 6xHis-tag (N); thrombin cleavage site (N); made in house; host or cells: E. coli BL21 (DE3) bioA
# Description: as §1, §2
# [5] = target: T5, Arabidopsis thaliana BIO3-BIO1 (BioDA) mutants (Arabidopsis thaliana, UniProt B0F481, Q517F)
# T5 construct: with the predicted N-terminal mitochondrial transit peptide removed; 6xHis-tag (N); thrombin cleavage site (N); made in house; host or cells: E. coli BL21 (DE3) bioA
# Description: as §1, §2
# [6] = target: T6, Arabidopsis thaliana BIO3-BIO1 (BioDA) mutants (Arabidopsis thaliana, UniProt B0F481, Y511D)
# T6 construct: with the predicted N-terminal mitochondrial transit peptide removed; 6xHis-tag (N); thrombin cleavage site (N); made in house; host or cells: E. coli BL21 (DE3) bioA
# Description: as §1, §2
# [7] = target: T7, Arabidopsis thaliana BIO3-BIO1 (BioDA) mutants (Arabidopsis thaliana, UniProt B0F481, M419I)
# T7 construct: with the predicted N-terminal mitochondrial transit peptide removed; 6xHis-tag (N); thrombin cleavage site (N); made in house; host or cells: E. coli BL21 (DE3) bioA
# Description: as §1, §2
# [8] = target: T8, Arabidopsis thaliana BIO3-BIO1 (BioDA) mutants (Arabidopsis thaliana, UniProt B0F481, Q516C)
# T8 construct: with the predicted N-terminal mitochondrial transit peptide removed; 6xHis-tag (N); thrombin cleavage site (N); made in house; host or cells: E. coli BL21 (DE3) bioA
# Description: as §1, §2
# [9] = target: T9, Arabidopsis thaliana BIO3-BIO1 (BioDA) mutants (Arabidopsis thaliana, UniProt B0F481, W391M)
# T9 construct: with the predicted N-terminal mitochondrial transit peptide removed; 6xHis-tag (N); thrombin cleavage site (N); made in house; host or cells: E. coli BL21 (DE3) bioA
# Description: as §1, §2
# [10] = target: T10, Arabidopsis thaliana BIO3-BIO1 (BioDA) mutants (Arabidopsis thaliana, UniProt B0F481, S509Y)
# T10 construct: with the predicted N-terminal mitochondrial transit peptide removed; 6xHis-tag (N); thrombin cleavage site (N); made in house; host or cells: E. coli BL21 (DE3) bioA
# Description: as §1, §2
# [11] = target: T11, Arabidopsis thaliana BIO3-BIO1 (BioDA) mutants (Arabidopsis thaliana, UniProt B0F481, G610H)
# T11 construct: with the predicted N-terminal mitochondrial transit peptide removed; 6xHis-tag (N); thrombin cleavage site (N); made in house; host or cells: E. coli BL21 (DE3) bioA
# Description: as §1, §2
# [12] = target: T12, Arabidopsis thaliana BIO3-BIO1 (BioDA) mutants (Arabidopsis thaliana, UniProt B0F481, Q517W)
# T12 construct: with the predicted N-terminal mitochondrial transit peptide removed; 6xHis-tag (N); thrombin cleavage site (N); made in house; host or cells: E. coli BL21 (DE3) bioA
# Description: as §1, §2
# T5 sequence (B0F481 23-833 Q517F): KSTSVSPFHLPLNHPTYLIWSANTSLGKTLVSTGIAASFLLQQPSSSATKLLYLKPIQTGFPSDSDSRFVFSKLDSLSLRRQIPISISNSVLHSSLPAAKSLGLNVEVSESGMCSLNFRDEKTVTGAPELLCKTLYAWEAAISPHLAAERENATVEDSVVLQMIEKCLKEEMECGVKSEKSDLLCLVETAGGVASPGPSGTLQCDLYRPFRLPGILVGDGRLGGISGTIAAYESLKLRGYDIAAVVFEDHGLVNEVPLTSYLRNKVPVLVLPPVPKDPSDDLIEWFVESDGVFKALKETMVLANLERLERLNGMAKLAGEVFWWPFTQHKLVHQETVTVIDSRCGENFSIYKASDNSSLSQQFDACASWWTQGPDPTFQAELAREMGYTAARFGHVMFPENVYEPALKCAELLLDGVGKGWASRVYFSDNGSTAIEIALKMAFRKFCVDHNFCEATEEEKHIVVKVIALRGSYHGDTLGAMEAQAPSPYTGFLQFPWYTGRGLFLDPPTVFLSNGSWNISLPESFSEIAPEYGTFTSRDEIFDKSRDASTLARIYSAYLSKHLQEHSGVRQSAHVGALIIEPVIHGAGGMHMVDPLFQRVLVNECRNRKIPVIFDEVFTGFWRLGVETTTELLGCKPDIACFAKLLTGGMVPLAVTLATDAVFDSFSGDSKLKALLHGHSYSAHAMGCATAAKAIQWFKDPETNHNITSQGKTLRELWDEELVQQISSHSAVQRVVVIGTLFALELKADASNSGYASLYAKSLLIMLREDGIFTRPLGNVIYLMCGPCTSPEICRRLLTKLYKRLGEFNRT
# T9 sequence (B0F481 23-833 W391M): as the sequence (B0F481 23-833 Q517F) above, with W369M, F495Q counted along it
# T2 sequence (B0F481 23-833 S509V): as the sequence (B0F481 23-833 Q517F) above, with S487V, F495Q counted along it
# T11 sequence (B0F481 23-833 G610H): as the sequence (B0F481 23-833 Q517F) above, with F495Q, G588H counted along it
# T3 sequence (B0F481 23-833 P421G): as the sequence (B0F481 23-833 Q517F) above, with P399G, F495Q counted along it
# T10 sequence (B0F481 23-833 S509Y): as the sequence (B0F481 23-833 Q517F) above, with S487Y, F495Q counted along it
# T6 sequence (B0F481 23-833 Y511D): as the sequence (B0F481 23-833 Q517F) above, with Y489D, F495Q counted along it
# T8 sequence (B0F481 23-833 Q516C): as the sequence (B0F481 23-833 Q517F) above, with Q494C, F495Q counted along it
# T4 sequence (B0F481 23-833 A609H): as the sequence (B0F481 23-833 Q517F) above, with F495Q, A587H counted along it
# T1 sequence (B0F481 23-833 A609W): as the sequence (B0F481 23-833 Q517F) above, with F495Q, A587W counted along it
# T7 sequence (B0F481 23-833 M419I): as the sequence (B0F481 23-833 Q517F) above, with M397I, F495Q counted along it
# T12 sequence (B0F481 23-833 Q517W): as the sequence (B0F481 23-833 Q517F) above, with F495W counted along it
Structure (SMILES),inhibition at 1 µM [1] [%],inhibition at 1 µM [2] [%],inhibition at 1 µM [3] [%],inhibition at 1 µM [4] [%],inhibition at 1 µM [5] [%],inhibition at 1 µM [6] [%],inhibition at 1 µM [7] [%],inhibition at 1 µM [8] [%],inhibition at 1 µM [9] [%],inhibition at 1 µM [10] [%],inhibition at 1 µM [11] [%],inhibition at 1 µM [12] [%],inhibition at 0.2 µM [1] [%],inhibition at 5 µM [1] [%],inhibition at 0.2 µM [2] [%],inhibition at 5 µM [2] [%],inhibition at 0.2 µM [3] [%],inhibition at 5 µM [3] [%],inhibition at 0.2 µM [4] [%],inhibition at 5 µM [4] [%],also measured
"CCOC(=O)c1nn(-c2ccc3c(c2)OC(F)(F)C(F)(F)O3)c2cccc(C(C)=O)c2c1=O [Compound A, ethyl 5-acetyl-4-oxo-1-(2,2,3,3-tetrafluoro-1,4-benzodioxin-6-yl)cinnoline-3-carboxylate]",34,6,30,0,20,10,7,83,85,3,10,9,,,,,,,,,
"CCn1c(-c2ccc(Cl)c(Cl)c2)c(C(=O)O)c(=O)c2cc(F)ccc21 [Compound M, 2-(3,4-dichlorophenyl)-1-ethyl-6-fluoro-4-oxo-quinoline-3-carboxylic acid]",31,26,39,2,29,81,21,88,37,58,59,51,24,52,22,88,19,75,7,25,inhibition at 0.2 µM [5]: 0%; inhibition at 5 µM [5]: 70%; inhibition at 0.2 µM [6]: 38%; inhibition at 5 µM [6]: 96%; inhibition at 0.2 µM [7]: 2%; inhibition at 5 µM [7]: 20%; inhibition at 0.2 µM [8]: 64%; inhibition at 5 µM [8]: 97%; inhibition at 0.2 µM [9]: 27%; inhibition at 5 µM [9]: 84%; inhibition at 0.2 µM [10]: 28%; inhibition at 5 µM [10]: 85%; inhibition at 0.2 µM [11]: 26%; inhibition at 5 µM [11]: 84%; inhibition at 0.2 µM [12]: 26%; inhibition at 5 µM [12]: 79%
"CCn1c(Cn2ccc(C(F)(F)F)n2)cc(=O)c(C(=O)O)c1-c1ccc(Cl)c(Cl)c1 [Compound L, 2-(3,4-dichlorophenyl)-1-ethyl-4-oxo-6-[[3-(trifluoromethyl)pyrazol-1-yl]methyl]pyridine-3-carboxylic acid]",,,,,,,,,,,,,,,,,,,,,inhibition at 0.01 µM [1]: 35%; inhibition at 0.075 µM [1]: 46%; inhibition at 0.5 µM [1]: 66%; inhibition at 0.01 µM [3]: 9%; inhibition at 0.075 µM [3]: 11%; inhibition at 0.5 µM [3]: 85%; inhibition at 0.01 µM [4]: 0%; inhibition at 0.075 µM [4]: 0%; inhibition at 0.5 µM [4]: 0%; inhibition at 0.01 µM [7]: 6%; inhibition at 0.075 µM [7]: 1%; inhibition at 0.5 µM [7]: 30%; inhibition at 0.01 µM [8]: 44%; inhibition at 0.075 µM [8]: 77%; inhibition at 0.5 µM [8]: 95%; inhibition at 0.01 µM [11]: 7%; inhibition at 0.075 µM [11]: 18%; inhibition at 0.5 µM [11]: 65%
"CCn1c(C)c(-c2ccc(F)cc2F)c(=O)c(C(=O)O)c1-c1ccc(Cl)c(Cl)c1 [Compound C, 2-(3,4-dichlorophenyl)-5-(2,4-difluorophenyl)-1-ethyl-6-methyl-4-oxo-pyridine-3-carboxylic acid]",33,30,35,7,55,93,7,95,24,76,58,72,21,38,17,94,11,80,0,20,inhibition at 0.2 µM [5]: 29%; inhibition at 5 µM [5]: 85%; inhibition at 0.2 µM [6]: 68%; inhibition at 5 µM [6]: 99%; inhibition at 0.2 µM [7]: 1%; inhibition at 5 µM [7]: 53%; inhibition at 0.2 µM [8]: 74%; inhibition at 5 µM [8]: 99%; inhibition at 0.2 µM [9]: 39%; inhibition at 5 µM [9]: 63%; inhibition at 0.2 µM [10]: 37%; inhibition at 5 µM [10]: 95%; inhibition at 0.2 µM [11]: 19%; inhibition at 5 µM [11]: 82%; inhibition at 0.2 µM [12]: 29%; inhibition at 5 µM [12]: 90%
